# Earlier results in patent US10342765B2, “Therapeutic compositions comprising monoterpenes” (priority 2009, dated 2019).
# “Also recorded” adds a separate entry of the source.
# Key:
# malignant gliomas = conditions: patients with malignant gliomas; nasal inhalation
# [1] = nasal inhalation; nasal inhaler four times daily
# [2] = system: systemic malignancies including breast, lung, pancreatic, melanomas
compound,measurement,setting,value
"C=C(C)[C@@H]1CC=C(CO)CC1 [POH, perillyl alcohol]",tumor size (radiographic),malignant gliomas,radiographic reduction in tumor size
same,tolerability in patients,[1],"safely tolerated; also recorded: well tolerated, with minimal side effects"
same,effectiveness against systemic malignancies,[2],effective
